Key:
[1] = target: T1, KHK-C (Homo sapiens (Human), UniProt P50053); assay: Inhibitory activity against KHK-C kinase in vitro (ADP-Glo), Experimental Protocol II; type: biochemical; settings: 1 nM KHK-C, 100 μM ATP, 200 μM D-Fructose, control drug top concentration 1000 nM
Procedure: Experimental Protocol II: 1. Compound Dilution • 1) The compounds of the present invention and the control drug were formulated in DMSO to 10 mM as stock solutions for test. • 2) The stock solutions of the compounds of the present invention were diluted by 10-fold to 1 mM, and then further diluted in a 3-fold gradient to 11 concentrations, with the highest concentration being 1 mM. The stock solution of the control drug was diluted by 100-fold to 0.1 mM, and then further diluted in a 3-fold gradient to 11 concentrations, with the highest concentration being 0.1 mM. • 3) 0.1 μL of the compounds of the present invention and the control drug as diluted was transferred with Echo550 to a 384-well plate, in duplicate per concentration, and then centrifuged at 1000 rpm for 1 min. 2. Enzyme Reaction Test • 1) 5 μL of KHK-C kinase working solution was added to the 384-well plate, centrifuged at 1000 rpm for 1 min, and then incubated at room temperature of 25° C. for 15 min. • 2) 5 μL of the substrate working solution was added to the 384-well plate to initiate the kinase reaction, centrifuged at 1000 rpm for 1 min, and incubated at room temperature of 25° C. for 60 min. • 3) The final concentrations of the KHK-C kinase reaction system were 1 nM for KHK-C, 100 μM for ATP, 200 μM for D-Fructose, 50 mM for HEPES, 10 mM for MgCl2, and 0.01% for Brij35, and the final concentration of DMSO was 1%. • 4) The final concentrations of the test compounds were 10000 nM, 3333.33 nM, 1111.11 nM, 370.37 nM, 123.457 nM, 41.15 nM, 13.71 nM, 4.572 nM, 1.524 nM, 0.508 nM, and 0.169 nM, respectively. • 5) The final concentrations of the control drug were 1000 nM, 333.33 nM, 111.11 nM, 37.037 nM, 12.346 nM, 4.115 nM, 1.371 nM, 0.4572 nM, 0.1524 nM, 0.0508 nM, and 0.0169 nM, respectively. 3. Reaction Termination and Detection • 1) The 384-well plate was added with 10 μL of the ADP Glo reagent, centrifuged at 1000 rpm for 1 min, and then incubated at room temperature of 25° C. for 40 min. • 2) The 384-well plate was added with 20 μL of the kinase detection reagent, centrifuged at 1000 rpm for 1 min, and then incubated at room temperature of 25° C. for 40 min. • 3) After the reaction was completed, the […] value LUM was read on Envision. 4. Data Analysis The following equation was used to calculate the inhibition (% inh): […]

[2] = test system: HepG2 cells; assay: Inhibition of production of fructose-1-phosphate induced by D-Fructose in HepG2 cells (LC-MS); type: cell-based; settings: 30 min compound pre-incubation, D-Fructose 3 hours
Procedure: Experimental Protocol: 1. Cell Culture and Inoculation • 1) HepG2 cells in the logarithmic growth phase were collected and counted with a […]. The Trypan blue exclusion method was used to detect cell viability and ensure that cell viability is 90% or above. • 2) The concentration of HepG2 cells was adjusted, and 81 μL of the cell suspension in a FBS-free basal medium (starvation treatment) was add to a 96-well plate, with a cell inoculum amount of 5×10^4 cells per test well. • 3) The HepG2 cells in the 96-well plate were cultured overnight at 37° C., 5% CO2, and 95% humidity. 2. Administration • 1) Before administration, 9 μL of FBS was added to the test wells of the 96-well plate to stop the starvation treatment. • 2) 10× stock solutions of the individual test compounds were prepared by dilution in a 3-fold gradient to 8 concentrations, with the highest concentration of 100 μM. 10 μL of the test compound solutions was added to each well of the 96-well plate inoculated with the cells, in triplicate per test compound concentration. For the solvent control, 10 μL of 1% DMSO solution was added to each well, in triplicate. • 3) The cells in the 96-well plate added with the test compounds were incubated at 37° C., 5% CO2, and 95% humidity for 30 min. • 4) An 11-fold D-Fructose solution was prepared at the concentration of 220 mM. 10 μL of the D-Fructose solution was added to the 96-well plate inoculated with HepG2 cells per well, in triplicate. For the solvent control, 10 μL of 11% DPBS solution was added, in triplicate. • 5) The cells in the 96-well plate added with D-fructose were incubated at 37° C., 5% CO2, and 95% humidity for 3 hours. 3. Sample Treatment The medium in the 96-well plate was removed, and the cells in the 96-well plate were washed with cold DPBS (200 μl/well) for 3 times. 30 μL of cold 10 mM ammonium acetate (pH 7.4) was added into each well to lyse the cells (hypotonic lysis). After lysis on ice for 5 minutes, the cells were fully pipetted and the cell lysate was taken for LC-MS analysis. 4. Data Analysis The data were analyzed with GraphPad Prism 5.0 software, and fitted with nonlinear S-curve regression, so as to obtain a dose-effect curve to calculate the EC50 value. 5.

[3] = target: T1, KHK-C; assay: Inhibitory activity against KHK-C kinase in vitro (ADP-Glo), Experimental Protocol I; type: biochemical; settings: 1 nM KHK-C, 100 μM ATP, 200 μM D-Fructose, control drug top concentration 10000 nM
Procedure: 2. […] 3. Reaction Termination and Detection • 1) The 384-well plate was added with 10 μL of the ADP Glo reagent, centrifuged at 1000 rpm for 1 min, and then incubated at room temperature of 25° C. for 40 min. • 2) The 384-well plate was added with 20 μL of the kinase detection reagent, centrifuged at 1000 rpm for 1 min, and then incubated at room temperature of 25° C. for 40 min. • 3) After the reaction was completed, the […] value LUM was read on Envision. 4. Data Analysis The following equation was used to calculate the inhibition (% inh): […]

T1 sequence (P50053 whole entry): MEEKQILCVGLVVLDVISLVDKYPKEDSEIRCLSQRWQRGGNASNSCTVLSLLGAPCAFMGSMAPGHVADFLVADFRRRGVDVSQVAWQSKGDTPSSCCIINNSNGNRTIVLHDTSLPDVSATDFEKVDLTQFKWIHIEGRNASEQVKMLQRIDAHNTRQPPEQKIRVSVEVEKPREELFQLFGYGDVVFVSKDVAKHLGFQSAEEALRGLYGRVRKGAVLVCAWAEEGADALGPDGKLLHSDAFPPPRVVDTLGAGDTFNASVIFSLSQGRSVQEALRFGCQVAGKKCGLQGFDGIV

IC50 [1]	EC50 ([2]; Homo sapiens)	EC50 [2]	IC50 [3]	SMILES
0.9 nM	39 nM	–	–	CC1C(F)CN1c1nc(N2C[C@@H]3[C@@H](CC(=O)O)[C@@H]3C2)c2c(n1)C(F)(F)CC2 (stereo partly drawn) [Compound 6-1, 2-((1R,5S,6s)-3-(7,7-difluoro-2-(3-fluoro-2-methylazetidin-1-yl)-6,7-dihydro-5H-cyclopenta[d]pyrimidin-4-yl)-3-azabicyclo[3.1.0]hexan-6-yl)acetic acid]
–	–	169 nM	–	C[C@H]1CCN1c1nc(N2C[C@@H]3C(CC(=O)O)[C@@H]3C2)cc(C(F)(F)F)n1 (stereo partly drawn) [PF-06835919, reference compound]
–	21.9 nM	–	–	C[C@H]1CCN1c1nc(N2C[C@@H]3[C@@H](CC(=O)O)[C@@H]3C2)c2c(n1)C(F)(F)CC2 [Compound 1, 2-((1R,5S,6R)-3-(7,7-difluoro-2-((S)-2-methylazetidin-1-yl)-6,7-dihydro-5H-cyclopenta[d]pyrimidin-4-yl)-3-azabicyclo[3.1.0]hexan-6-yl)acetic acid]
2.2 nM	11.8 nM	–	–	CC1N(c2nc(N3C[C@@H]4[C@@H](CC(=O)O)[C@@H]4C3)c3c(n2)C(F)(F)CCC3)CC1(F)F (stereo partly drawn) [Compound 4-1, 2-((1R,5S,6s)-3-(2-(3,3-difluoro-2-methylazetidin-1-yl)-8,8-difluoro-5,6,7,8-tetrahydroquinazolin-4-yl)-3-azabicyclo[3.1.0]hexan-6-yl)acetic acid]

Second part, the molecule before the results:

SMILES	IC50 [1]	EC50 ([2]; Homo sapiens)	EC50 [2]	IC50 [3]
C[C@H]1N(c2nc(N3C[C@@H]4[C@@H](CC(=O)O)[C@@H]4C3)c3c(n2)C(F)(F)CCC3)CC1(F)F (single isomer, unassigned) [Compound 4-2]	1.5 nM	18.2 nM	–	–
C[C@H]1CCN1c1nc(N2C[C@@H]3[C@@H](CC(=O)O)[C@@H]3C2)c2c(n1)C(F)(F)CCC2 [Compound 2, 2-((1R,5S,6R)-3-(8,8-difluoro-2-((S)-2-methylazetidin-1-yl)-5,6,7,8-tetrahydroquinazolin-4-yl)-3-azabicyclo[3.1.0]hexan-6-yl)acetic acid]	–	14.5 nM	–	0.52 nM
CC1C(F)CN1c1nc(N2C[C@@H]3[C@@H](CC(=O)O)[C@@H]3C2)c2c(n1)C(F)(F)CCC2 (stereo partly drawn) [Compound 3-1, 2-((1R,5S,6s)-3-(8,8-difluoro-2-(3-fluoro-2-methylazetidin-1-yl)-5,6,7,8-tetrahydroquinazolin-4-yl)-3-azabicyclo[3.1.0]hexan-6-yl)acetic acid]	0.73 nM	7.3 nM	–	–
